Columns and labels:
Type in all cases: cell-based, human
K562 cells [1] = experiment: Cell death assessed by flow cytometry; conditions: 72 h
Method: A: Cells were treated with different concentrations of amino-oxyacetate and expression levels of the erythroid marker glycophorin A (GPA) on the surface of K562 cells were assessed using a mouse FITC-conjugated anti-human glycophorin A antibody. Each histogram is representative of three experiments. B: K562 cells with or without ME2 knockdown were incubated with different concentrations of AOA for 72 h. Cell death was assessed by flow cytometry. Top: pLKO; Bottom: shME2-3. […] C: Cells were treated with different concentrations of malate and expression levels of the erythroid marker glycophorin A on the surface of K562 cells were assessed using a mouse FITC-conjugated anti-human glycophorin A antibody. Each histogram is representative of three experiments.
K562 cells with or without ME2 knockdown were incubated with 0.1 mM AOA plus 2 mM α-KG for 48 h. Cell death was assessed by flow cytometry. A: pLKO K562 cells without any treatment. B: pLKO K562 cells treated with 0.1 mM AOA for 48 h. C: pLKO K562 cells treated with 0.1 mM AOA combined with 2 mM α-KG.

K562 cells [2] = experiment: Erythroid differentiation assay (glycophorin A, CD10, benzidine hemoglobin staining); conditions: for rescue of differentiation mediated by ME2 depletion: supplementation
Method: Erythroid differentiation assay: Induction of surface expression of the erythroid marker glycophorin A and CD10 was determined by indirect immunofluorescence and flow cytometry, as described previously by Hatzivassiliou et al., in Cancer Cell. 8: 311-321 (2005). In brief, K562 cells with or without ME2 knockdown were stained with a mouse FITC-conjugated anti-glycophorin A or CD10 antibody (Dako) at 1:100 dilution in medium plus 10% FCS for 30 min at 4° C. Control cells were stained with FITC-conjugated IgG. Cells expressing hemoglobin were determined by benzidine staining, as previously described by Park et al., in Cell Growth Differ. 12: 481-486 (2001). The benzidine dihydrochloride stock solution contained 0.2% w/v benzidine hydrochloride in 3% acetic acid. Cells (1×10^5) were washed twice in ice-cold PBS. The cell pellets were resuspended in ice-clod PBS. Before staining, 5 μl of 30% H2O2 was added to 1 ml of a stock solution of benzidine solution. The cell suspensions were mixed with the benzidine solution in a 1:1 ratio and counted in a hemocytometer after 30 min. Blue cells were considered to be positive for hemoglobin. The proportion of blue-stained cells was quantified under light microscopy. A total of 500 cells were counted for each sample in triplicate. Shown is the mean±SD of a representative experiment.

K562 cells [3] = experiment: Proliferation assay (Coulter counter); conditions: for rescue of ME2 knockdown cell cycle phenotype (decreased proliferation): supplementation
Method: Proliferation assay: Control and ME2 deficient cell lines were plated in 6-well plate at a density of 1×10^5 cells/well and maintained at 37° C. in a 5% CO2 incubator. After 24, 72, 120 and 168 hours of initial plating, 0.5 ml cells were diluted into 10 ml of Hanks' buffer and counted by Coulter counter.

[4] = tested on: phospho-ERK1/2, phospho-AKT, GATA-1, vimentin; experiment: Western blot of signaling pathways, GATA-1 and vimentin in K562 cells; conditions: K562, 10 μM
Method: K562 cells with or without ME2 knockdown were lysed with RIPA lysis buffer (50 mM Tris-HCl, pH 8.0, 150 mM NaCl, 1% Triton X-100, 1 mM EGTA) containing 1 mM PMSF and a protease inhibitor cocktail and subjected to centrifugation at 15,000×g for […] at 4° C. to remove debris. After lysis, equal aliquots of protein lysate were resolved by Western blotting. Western blots were probed with anti-phospho-ERK1/2, anti-ERK1, anti-p-AKT308, anti-AKT472, anti-AKT1/2, anti-GATA-1, anti-vimentin, and anti-β-tubulin. A: Phospho-ERK1/2 activity in ME2 knockdown K562 cells. B: Phospho-AKT detection in ME2 knockdown K562 cells. C: 10 μM PI3K inhibitor, LY294002, inhibits p-AKT activity. D: LY294002 rescue of differentiation in ME2 knockdown K562 cells. E: The effect of LY294002 on the proliferation of K562 cells with (third to sixth bars in graph) or without ME2 (first to second bars in graph) knockdown. F: The expression difference of GATA-1 and vimentin in ME2 knockdown cells. Data are representative of three independent experiments. […] Membranes were washed in PBS plus 0.1% Tween 20 and probed with anti-rabbit or anti-mouse HRP-conjugated secondary antibody (both at 1:10,000 dilution), and proteins were detected using the ECL Plus chemiluminescence detection reagent (Amersham Biosciences).

K562 cells [5] = experiment: Determination of cellular reactive oxygen species (CM-H2DCF-DA, MitoSOX); conditions: ME2 knockdown K562 cells, 5.0 mM
Method: Determination of cellular reactive oxygen species (ROS): Intracellular ROS production was measured by staining with CM-H2DCFDA. CM-H2DCFDA is a cell-permeant indicator for ROS that is nonfluorescent until removal of the acetate groups by intracellular esterases and oxidation occurs within the cell. The procedure for measuring ROS was carried out as described in Trachootham et al., in Cancer Cell. 10: 241-252 (2006), with minor modifications. Briefly, K562 cells transduced with shRNA lentiviral particles or control vector were selected with puromycin for 2 weeks, […], followed by flow cytometry using a FACSCalibur equipped with CellQuest Pro software. Superoxide radicals (O2^−) were measured separately using the MitoSOX™ reagent according to the manufacturer's protocol (Invitrogen). In brief, cells with or without ME2 knockdown were incubated with 5 μM MitoSOX™ reagent for 10 minutes at 37° C., then washed three times and observed under a fluorescence microscope using the Rhodamine filter and Axiovision software for capturing images (Zeiss, Germany).

NOCC(=O)O [AOA, amino-oxyacetate]
cell death (K562 cells [1]; K562 with ME2 silenced (shME2-3)): induced leukemia cell death (mainly apoptotic) | cell death (K562 cells [1]; wild type K562 (pLKO)): induced leukemia cell death (mainly necrotic) | erythroid differentiation (glycophorin staining) (K562 cells [2]; K562, 0.2 to 0.8 mM in medium): could not induce erythroid differentiation

O=c1cc(N2CCOCC2)oc2c(-c3ccccc3)cccc12 [LY294002, 2-morpholin-4-yl-8-phenylchromen-4-one]
rescue of proliferation inhibition (K562 cells [3]; ME2 knockdown K562 cells): does not rescue proliferation inhibition in ME2 knockdown cells as effectively | sensitivity of proliferation inhibition to LY294002 (K562 cells [3]; ME2 knockdown vs parental K562 cells): more sensitive | p-AKT activity [4]: significantly inhibit p-AKT activity | differentiation mediated by ME2 silencing (K562 cells [2]; ME2 knockdown K562 cells, 10 μM): rescues the differentiation

CC(=O)N[C@@H](CS)C(=O)O [NAC, N-acetyl cysteine]
endogenous ROS (K562 cells [5]): completely inhibited | differentiation induced by ME2 depletion (K562 cells [2]; ME2 knockdown K562 cells, 5.0 mM): without affecting differentiation

Nc1ccn([C@@H]2O[C@H](CO)[C@@H](O)[C@H]2O)c(=O)n1 [cytidine]
rescue of ME2 knockdown cell cycle phenotype (decreased proliferation) (K562 cells [3]; ME2 knockdown K562 cells): nor were we able to rescue | rescue of differentiation mediated by ME2 depletion (K562 cells [2]; ME2 knockdown K562 cells): could not rescue the differentiation

O=C(O)CC(O)C(=O)O (centres unmarked) [malate]
erythroid differentiation (K562 cells [2]; wild type K562, 0.1 to 10 mM in medium): could not induce erythroid differentiation

O=c1ccn([C@@H]2O[C@H](CO)[C@@H](O)[C@H]2O)c(=O)[nH]1 [uridine]
rescue of ME2 knockdown cell cycle phenotype (decreased proliferation) (K562 cells [3]; ME2 knockdown K562 cells): nor were we able to rescue | rescue of differentiation mediated by ME2 depletion (K562 cells [2]; ME2 knockdown K562 cells): could not rescue the differentiation

From patent US9539323B2, “Methods and compositions for malic enzyme 2 (ME2) as a target for cancer therapy” (Beth Israel Deaconess Medical Center, Inc., priority 2010, dated 2017)
